Measured values: DBAASP
≈ marks a conversion by molar mass, not a printed value. Where “and” joins values, the source holds several entries; their conditions need not be identical. Equal values may be shown once. One block for each compound: values may come before it.

How the values were obtained:
Experiment in all cases: ≥ marks a high value that may be exact or a test limit, other limits are often not marked, values filed in µg/mL are converted to µM
Escherichia coli TOP 10 = tested on: Escherichia coli TOP 10
[1] = tested on: Escherichia coli ATCC 25922
Escherichia coli ESBL = tested on: Escherichia coli ESBL
[2] = tested on: Pseudomonas aeruginosa ATCC 27853
Pseudomonas aeruginosa = tested on: Pseudomonas aeruginosa
[3] = tested on: Staphylococcus aureus ATCC 25923
[4] = tested on: Staphylococcus aureus ATCC 29213
[5] = tested on: Staphylococcus aureus ATCC BAA-1696
Staphylococcus aureus MR = tested on: Staphylococcus aureus MR
[6] = tested on: Staphylococcus aureus Xen36
[7] = tested on: Acinetobacter baumannii 7226/16
[8] = tested on: Escherichia coli ESBL 521/17
Escherichia coli ML-35p = tested on: Escherichia coli ML-35p
[9] = tested on: Klebsiella pneumoniae ESBL 344/17
[10] = tested on: Pseudomonas aeruginosa 522/17
[11] = tested on: Staphylococcus aureus 1399/17
[12] = tested on: Staphylococcus aureus ATCC 33591
[13] = tested on: Staphylococcus aureus SG511
Candida albicans = tested on: Candida albicans
[14] = tested on: Enterococcus faecalis ATCC 29212
[15] = tested on: Enterococcus faecalis NCTC 12203
Escherichia coli UB1005 = tested on: Escherichia coli UB1005
Escherichia coli = tested on: Escherichia coli
[16] = tested on: Mycobacterium tuberculosis H37Rv
[17] = tested on: Pseudomonas aeruginosa 253
[18] = tested on: Pseudomonas aeruginosa 910
[19] = tested on: Pseudomonas aeruginosa 919
[20] = tested on: Pseudomonas aeruginosa H103
[21] = tested on: Pseudomonas aeruginosa PAO1
[22] = tested on: Salmonella enterica serovar Typhimurium
[23] = tested on: Staphylococcus epidermidis
Bacillus subtilis 168 = tested on: Bacillus subtilis 168
[24] = tested on: Escherichia coli DH5alpha
[25] = tested on: Mycobacterium tuberculosis H37Ra
[26] = tested on: Staphylococcus aureus NRS 72
[27] = tested on: Staphylococcus aureus USA 300
[28] = tested on: Escherichia coli NBRC 14237
[29] = tested on: Saccharomyces cerevisiae NBRC 10217
[30] = tested on: Staphylococcus aureus NBRC 12732

SMILES: CC[C@H](C)[C@H](NC(=O)[C@H](CCCN=C(N)N)NC(=O)[C@@H](NC(=O)[C@@H]1CCCN1C(=O)[C@@H]1CCCN1C(=O)[C@H](CCCN=C(N)N)NC(=O)[C@H](CCCN=C(N)N)NC(=O)[C@H](Cc1ccccc1)NC(=O)[C@@H]1CCCN1C(=O)[C@H](CC(C)C)NC(=O)[C@H](CCCN=C(N)N)NC(=O)[C@H](Cc1ccccc1)NC(=O)[C@@H](N)CCCN=C(N)N)[C@@H](C)CC)C(=O)N[C@@H](Cc1cnc[nH]1)C(N)=O [RFRLPFRRPPIRIH]
MIC [7]: 16 µM (≈ 29.8 µg/mL) | MIC [8]: 16 µM (≈ 29.8 µg/mL) | MIC (Escherichia coli ML-35p): 8 µM (≈ 14.9 µg/mL) | MIC [9]: 16 µM (≈ 29.8 µg/mL) | MIC [10]: ≥ 64 µM | MIC [11]: ≥ 128 µM | MIC [12]: 16 µM (≈ 29.8 µg/mL) | MIC [13]: 2 µM (≈ 3.72 µg/mL)

SMILES: CC[C@H](C)[C@H](NC(=O)[C@H](CCCN=C(N)N)NC(=O)[C@H](Cc1c[nH]c2ccccc12)NC(=O)[C@H](CCCN=C(N)N)NC(=O)[C@@H](N)CCCN=C(N)N)C(=O)N[C@H](C(=O)N[C@H](C(=O)N[C@H](C(=O)N[C@@H](CCCN=C(N)N)C(=O)N[C@H](C(=O)N[C@@H](CCCN=C(N)N)C(=O)N[C@@H](CCCN=C(N)N)C(=O)O)C(C)C)[C@@H](C)CC)C(C)C)C(C)C [RRWRIVVIRVRR]
MIC (Candida albicans): 2.4 µM (≈ 4 µg/mL) | MIC [14]: 2.4 µM (≈ 4 µg/mL) | MIC [15]: 1.2 µM (≈ 2 µg/mL) | MIC [1]: 2 µM (≈ 3.33 µg/mL) | MIC (Escherichia coli UB1005): 0.601 µM (≈ 1 µg/mL) | MIC (Escherichia coli): 1.2 µM (≈ 2 µg/mL) | MIC [16]: 1.92 µM (≈ 3.2 µg/mL) | MIC [17]: 8 µM (≈ 13.3 µg/mL) | MIC [18]: 16 µM (≈ 26.6 µg/mL) | MIC [19]: 16 µM (≈ 26.6 µg/mL) | MIC [20]: 1.2 µM (≈ 2 µg/mL) | MIC [21]: 8 µM (≈ 13.3 µg/mL) | MIC [22]: 2.4 µM (≈ 4 µg/mL) | MIC [3]: 4 µM (≈ 6.66 µg/mL) | MIC [4]: 1.2 µM (≈ 2 µg/mL) | MIC (Staphylococcus aureus MR): 1.2 µM (≈ 2 µg/mL) | MIC [23]: 0.12 µM and 0.3 µM

SMILES: CC(C)C[C@H](NC(=O)[C@H](Cc1cnc[nH]1)NC(=O)[C@H](CO)NC(=O)[C@H](CC(N)=O)NC(=O)[C@H](CCCCN)NC(=O)[C@H](CCCCN)NC(=O)[C@H](Cc1ccccc1)NC(=O)[C@H](Cc1c[nH]c2ccccc12)NC(=O)[C@H](CCCCN)NC(=O)CNC(=O)[C@H](Cc1c[nH]c2ccccc12)NC(=O)[C@@H](N)CCCN=C(N)N)C(=O)N[C@@H](CO)C(N)=O [RWGKWFKKNSHLS]
MIC (Bacillus subtilis 168): ≥ 80 µM | MIC [24]: ≥ 80 µM | MIC [25]: ≥ 80 µM | MIC [21]: > 80 µM | MIC [26]: ≥ 80 µM | MIC [27]: ≥ 80 µM

More lines, now with the values ahead:

MIC (Escherichia coli TOP 10): 5.47 µM (≈ 12.5 µg/mL)
SMILES: CC[C@H](C)[C@H](NC(=O)[C@H](CCCCN)NC(=O)[C@H](CO)NC(=O)[C@@H](NC(=O)[C@@H](NC(=O)[C@H](CC(N)=O)NC(=O)[C@H](CCCCN)NC(=O)[C@H](Cc1ccccc1)NC(=O)[C@H](C)NC(=O)[C@@H]1CCCN1C(=O)[C@H](CC(C)C)NC(=O)[C@@H](N)Cc1ccccc1)C(C)C)[C@@H](C)CC)C(=O)N[C@@H](CC(C)C)C(=O)N[C@@H](CCCCN)C(=O)N[C@@H](C)C(=O)N[C@@H](CC(C)C)C(=O)N[C@@H](CCCCN)C(=O)N[C@@H](CCCCN)C(=O)N[C@@H](CCCCN)C(=O)N[C@H](C(N)=O)C(C)C [FLPAFKNVISKILKALKKKV]

MIC [1]: 3.19 µM (≈ 8 µg/mL) | MIC (Escherichia coli ESBL): 2.26 µM (≈ 5.66 µg/mL) | MIC [2]: 3.19 µM (≈ 8 µg/mL) | MIC (Pseudomonas aeruginosa): 6.39 µM (≈ 16 µg/mL) | MIC [3]: 1.6 µM (≈ 4 µg/mL) | MIC [4]: > 3.27 µM | MIC [5]: 3.27 µM (≈ 8.19 µg/mL) | MIC (Staphylococcus aureus MR): 1.6 µM (≈ 4 µg/mL) | MIC [6]: 3.27 µM (≈ 8.19 µg/mL)
SMILES: NCCCC[C@H](NC(=O)CNC(=O)[C@H](CCCCN)NC(=O)[C@H](CC(N)=O)NC(=O)[C@H](CCCCN)NC(=O)[C@H](Cc1cnc[nH]1)NC(=O)[C@H](CCCCN)NC(=O)CN)C(=O)N[C@@H](CCCCN)C(=O)N[C@@H](CC(N)=O)C(=O)NCC(=O)N[C@@H](CCCCN)C(=O)N[C@@H](Cc1cnc[nH]1)C(=O)N[C@@H](CC(N)=O)C(=O)NCC(=O)N[C@@H](Cc1c[nH]c2ccccc12)C(=O)N[C@@H](CCCCN)C(=O)N[C@@H](Cc1c[nH]c2ccccc12)C(=O)N[C@@H](Cc1c[nH]c2ccccc12)C(=O)N[C@@H](Cc1c[nH]c2ccccc12)C(=O)O [GKHKNKGKKNGKHNGWKWWW]

MIC [28]: 6.25 µM (≈ 22.2 µg/mL) | MIC [29]: 6.25 µM (≈ 22.2 µg/mL) | MIC [30]: 6.25 µM (≈ 22.2 µg/mL)
SMILES: CC[C@H](C)[C@H](NC(=O)[C@H](CCCN=C(N)N)NC(=O)[C@H](CCCN=C(N)N)NC(=O)[C@H](CCCN=C(N)N)NC(=O)[C@H](CO)NC(=O)[C@H](Cc1ccccc1)NC(=O)[C@H](CC(=O)O)NC(=O)[C@H](Cc1ccccc1)NC(=O)[C@H](CCCN=C(N)N)NC(=O)[C@H](CCCN=C(N)N)NC(=O)[C@H](CCCN=C(N)N)NC(=O)[C@@H](N)CO)C(=O)N[C@@H](Cc1ccc(O)cc1)C(=O)N[C@H](C(=O)N[C@@H](C)C(=O)N[C@@H](CCCN=C(N)N)C(=O)N[C@@H](CCCN=C(N)N)C(=O)N[C@@H](CCCN=C(N)N)C(=O)N[C@@H](CO)C(=O)N[C@@H](CC(C)C)C(=O)N[C@@H](C)C(=O)N[C@@H](Cc1ccccc1)C(=O)N[C@@H](C)C(=O)N[C@@H](Cc1cnc[nH]1)C(=O)N[C@@H](CCCN=C(N)N)C(=O)N[C@@H](CCCN=C(N)N)C(=O)N[C@@H](CCCN=C(N)N)C(=O)O)C(C)C [SRRRFDFSRRRIYVARRRSLAFAHRRR]
